Assay results published in patent US20030086873A1, “Myocardial imaging agent and preparation method thereof” (priority 2001, published 2003).
One block for each compound: values may come before it.

Columns and labels:
[1] = Biological distribution in the bodies of Kunming mice after caudal vein injection; type: in vivo
Description: The complexes [^99mTc(CO)3(OH2)3]^+ and [^99mTc(CO)3(MIBI)3]^+ prepared in Example 1 were separately injected in the caudal vein of Kunming mice. The experiment was conducted on three mice within each time period, and the injection's activity was 925 KBq. The radioactivity of individual organs's tissue was measured at 5, 15, 30, and 60 minutes after the injection, and the results are represented by radioactive uptake rate per gram of tissue.
The results of the distribution of [^99mTc(CO)3(OH2)3]^+ in the mice's bodies are included in Tables 2; the results for [^99mTc(CO)3(MIBI)3]^+ are presented in Table 3. The value “% ID/g” is the percentage of the injection's total radioactivity that each gram of tissue accounts for i.e., the radioactive uptake rate per gram of tissue, with ID standing for “injected dose.”

[2] = Dynamic SPECT imaging and biological distribution in dogs after intravenous injection; type: in vivo; settings: for Heart biological distribution / Kidneys biological distribution / Liver biological distribution / Lungs biological distribution: i.v.
Description: Dogs were intravenously injected with [^99mTc(CO)3(MIBI)3]^+ or [^99mTc(MIBI)6][…]at dose of […]. Immediately following injection, dynamic photography for up to 120 min was performed using a Toshiba GCA 7200A two-probe SPECT and a low energy parallel aperture regular collimator. Time—radioactivity curves were also collected for the heart, liver, lungs, and kidneys. Target/non-target radioactivity ratios were calculated, and fall body imaging was performed separately at different times. The biological distributions of the imaging agents in the body were analyzed. Vein blood samples were collected separately at different times, and the dynamics of the blood clearance was analyzed. Flat myocardial imaging was conducted separately at different times, with myocardial tomographic imaging at 120 minutes post injection.

Target/Non-Target Uptake Ratio Heart/Blood ([1]; 5 Minutes): 12.80
Target/Non-Target Uptake Ratio Heart/Liver ([1]; 5 Minutes): 0.94
Target/Non-Target Uptake Ratio Heart/Lungs ([1]; 5 Minutes): 2.87
Target/Non-Target Uptake Ratio Heart/Blood ([1]; 15 Minutes): 35.09
Target/Non-Target Uptake Ratio Heart/Liver ([1]; 15 Minutes): 0.76
Target/Non-Target Uptake Ratio Heart/Lungs ([1]; 15 Minutes): 6.08
Target/Non-Target Uptake Ratio Heart/Blood ([1]; 30 Minutes): 89.04
Target/Non-Target Uptake Ratio Heart/Liver ([1]; 30 Minutes): 0.90
Target/Non-Target Uptake Ratio Heart/Lungs ([1]; 30 Minutes): 9.07
Target/Non-Target Uptake Ratio Heart/Blood ([1]; 60 Minutes): 134.15
Target/Non-Target Uptake Ratio Heart/Liver ([1]; 60 Minutes): 1.04
Target/Non-Target Uptake Ratio Heart/Lungs ([1]; 60 Minutes): 12.25
Target/Non-Target Uptake Ratio Heart/Kidneys ([2]; 2 Minutes): 0.39
Target/Non-Target Uptake Ratio Heart/Liver ([2]; 2 Minutes): 0.83
Target/Non-Target Uptake Ratio Heart/Lungs ([2]; 2 Minutes): 2.35
Target/Non-Target Uptake Ratio Heart/Kidneys ([2]; 5 Minutes): 0.48
Target/Non-Target Uptake Ratio Heart/Liver ([2]; 5 Minutes): 0.83
Target/Non-Target Uptake Ratio Heart/Lungs ([2]; 5 Minutes): 2.48
Target/Non-Target Uptake Ratio Heart/Kidneys ([2]; 10 Minutes): 0.59
Target/Non-Target Uptake Ratio Heart/Liver ([2]; 10 Minutes): 0.77
Target/Non-Target Uptake Ratio Heart/Lungs ([2]; 10 Minutes): 2.66
Target/Non-Target Uptake Ratio Heart/Kidneys ([2]; 20 Minutes): 0.45
Target/Non-Target Uptake Ratio Heart/Liver ([2]; 20 Minutes): 0.85
Target/Non-Target Uptake Ratio Heart/Lungs ([2]; 20 Minutes): 2.8
Target/Non-Target Uptake Ratio Heart/Kidneys ([2]; 30 Minutes): 0.43
Target/Non-Target Uptake Ratio Heart/Liver ([2]; 30 Minutes): 0.86
Target/Non-Target Uptake Ratio Heart/Lungs ([2]; 30 Minutes): 2.68
Target/Non-Target Uptake Ratio Heart/Kidneys ([2]; 40 Minutes): 0.43
Target/Non-Target Uptake Ratio Heart/Liver ([2]; 40 Minutes): 0.87
Target/Non-Target Uptake Ratio Heart/Lungs ([2]; 40 Minutes): 2.7
Target/Non-Target Uptake Ratio Heart/Kidneys ([2]; 60 Minutes): 0.43
Target/Non-Target Uptake Ratio Heart/Liver ([2]; 60 Minutes): 0.84
Target/Non-Target Uptake Ratio Heart/Lungs ([2]; 60 Minutes): 2.84
Target/Non-Target Uptake Ratio Heart/Kidneys ([2]; 90 Minutes): 0.46
Target/Non-Target Uptake Ratio Heart/Liver ([2]; 90 Minutes): 0.8
Target/Non-Target Uptake Ratio Heart/Lungs ([2]; 90 Minutes): 2.84
Target/Non-Target Uptake Ratio Heart/Kidneys ([2]; 120 Minutes): 0.45
Target/Non-Target Uptake Ratio Heart/Liver ([2]; 120 Minutes): 0.8
Target/Non-Target Uptake Ratio Heart/Lungs ([2]; 120 Minutes): 2.73
Heart biological distribution ([2]; 20 Minutes): 3.2 % ID/g
Kidneys biological distribution ([2]; 20 Minutes): 14.3 % ID/g
Liver biological distribution ([2]; 20 Minutes): 21.0 % ID/g
Lungs biological distribution ([2]; 20 Minutes): 6.3 % ID/g
Heart biological distribution ([2]; 30 Minutes): 3.5 % ID/g
Kidneys biological distribution ([2]; 30 Minutes): 3.2 % ID/g
Liver biological distribution ([2]; 30 Minutes): 10.3 % ID/g
Lungs biological distribution ([2]; 30 Minutes): 6.5 % ID/g
Heart biological distribution ([2]; 40 Minutes): 2.9 % ID/g
Kidneys biological distribution ([2]; 40 Minutes): 12.3 % ID/g
Liver biological distribution ([2]; 40 Minutes): 24.4 % ID/g
Lungs biological distribution ([2]; 40 Minutes): 6.3 % ID/g
Heart biological distribution ([2]; 60 Minutes): 3.3 % ID/g
Kidneys biological distribution ([2]; 60 Minutes): 12.7 % ID/g
Liver biological distribution ([2]; 60 Minutes): 25.1 % ID/g
Lungs biological distribution ([2]; 60 Minutes): 5.5 % ID/g
Heart biological distribution ([2]; 90 Minutes): 3.2 % ID/g
Kidneys biological distribution ([2]; 90 Minutes): 13.2 % ID/g
Liver biological distribution ([2]; 90 Minutes): 22.8 % ID/g
Lungs biological distribution ([2]; 90 Minutes): 6.2 % ID/g
Heart biological distribution ([2]; 120 Minutes): 3.5 % ID/g
Kidneys biological distribution ([2]; 120 Minutes): 12.1 % ID/g
Liver biological distribution ([2]; 120 Minutes): 25.2 % ID/g
Lungs biological distribution ([2]; 120 Minutes): 5.2 % ID/g
Liver time-radioactivity curve relative to the myocardial curve ([2]; in words): higher than the myocardial curve
Compound: [C-]#[N+]CC(C)(C)OC.[C-]#[N+]CC(C)(C)OC.[C-]#[N+]CC(C)(C)OC.[C-]#[N+]CC(C)(C)OC.[C-]#[N+]CC(C)(C)OC.[C-]#[N+]CC(C)(C)OC.[Tc] [[^99mTc(MIBI)6]^+, reference compound]

Blood radioactive uptake per gram of tissue ([1]; 5 Minutes after injection): 9.27 ± 1.13 % ID/g
Bones radioactive uptake per gram of tissue ([1]; 5 Minutes after injection): 2.82 ± 0.95 % ID/g
Brain radioactive uptake per gram of tissue ([1]; 5 Minutes after injection): 0.31 ± 0.09 % ID/g
Heart radioactive uptake per gram of tissue ([1]; 5 Minutes after injection): 2.68 ± 0.88 % ID/g
Kidneys radioactive uptake per gram of tissue ([1]; 5 Minutes after injection): 18.29 ± 4.22 % ID/g
Liver radioactive uptake per gram of tissue ([1]; 5 Minutes after injection): 10.33 ± 0.82 % ID/g
Lungs radioactive uptake per gram of tissue ([1]; 5 Minutes after injection): 6.53 ± 1.41 % ID/g
Muscles radioactive uptake per gram of tissue ([1]; 5 Minutes after injection): 1.47 ± 0.37 % ID/g
Spleen radioactive uptake per gram of tissue ([1]; 5 Minutes after injection): 2.02 ± 1.02 % ID/g
Blood radioactive uptake per gram of tissue ([1]; 15 Minutes after injection): 6.04 ± 0.73 % ID/g
Bones radioactive uptake per gram of tissue ([1]; 15 Minutes after injection): 1.68 ± 0.22 % ID/g
Brain radioactive uptake per gram of tissue ([1]; 15 Minutes after injection): 0.27 ± 0.03 % ID/g
Heart radioactive uptake per gram of tissue ([1]; 15 Minutes after injection): 2.39 ± 0.66 % ID/g
Kidneys radioactive uptake per gram of tissue ([1]; 15 Minutes after injection): 14.25 ± 1.78 % ID/g
Liver radioactive uptake per gram of tissue ([1]; 15 Minutes after injection): 11.95 ± 0.66 % ID/g
Lungs radioactive uptake per gram of tissue ([1]; 15 Minutes after injection): 5.38 ± 0.76 % ID/g
Muscles radioactive uptake per gram of tissue ([1]; 15 Minutes after injection): 1.46 ± 0.48 % ID/g
Spleen radioactive uptake per gram of tissue ([1]; 15 Minutes after injection): 2.38 ± 0.37 % ID/g
Blood radioactive uptake per gram of tissue ([1]; 30 Minutes after injection): 5.79 ± 0.66 % ID/g
Bones radioactive uptake per gram of tissue ([1]; 30 Minutes after injection): 2.38 ± 0.54 % ID/g
Brain radioactive uptake per gram of tissue ([1]; 30 Minutes after injection): 0.29 ± 0.06 % ID/g
Heart radioactive uptake per gram of tissue ([1]; 30 Minutes after injection): 2.39 ± 0.56 % ID/g
Kidneys radioactive uptake per gram of tissue ([1]; 30 Minutes after injection): 13.88 ± 1.02 % ID/g
Liver radioactive uptake per gram of tissue ([1]; 30 Minutes after injection): 10.83 ± 1.68 % ID/g
Lungs radioactive uptake per gram of tissue ([1]; 30 Minutes after injection): 5.37 ± 0.78 % ID/g
Muscles radioactive uptake per gram of tissue ([1]; 30 Minutes after injection): 1.66 ± 0.61 % ID/g
Spleen radioactive uptake per gram of tissue ([1]; 30 Minutes after injection): 2.94 ± 0.69 % ID/g
Blood radioactive uptake per gram of tissue ([1]; 60 Minutes after injection): 4.50 ± 0.72 % ID/g
Bones radioactive uptake per gram of tissue ([1]; 60 Minutes after injection): 1.65 ± 0.12 % ID/g
Brain radioactive uptake per gram of tissue ([1]; 60 Minutes after injection): 0.22 ± 0.03 % ID/g
Heart radioactive uptake per gram of tissue ([1]; 60 Minutes after injection): 2.08 ± 0.31 % ID/g
Kidneys radioactive uptake per gram of tissue ([1]; 60 Minutes after injection): 12.28 ± 2.32 % ID/g
Liver radioactive uptake per gram of tissue ([1]; 60 Minutes after injection): 10.73 ± 0.90 % ID/g
Lungs radioactive uptake per gram of tissue ([1]; 60 Minutes after injection): 5.19 ± 1.18 % ID/g
Muscles radioactive uptake per gram of tissue ([1]; 60 Minutes after injection): 1.37 ± 0.80 % ID/g
Spleen radioactive uptake per gram of tissue ([1]; 60 Minutes after injection): 3.20 ± 0.80 % ID/g
Specific concentration in tissues / heart ([1]; in words): no specific concentration
Radioactive retention ([1]; within 60 minutes, in words): good radioactive retention
Compound: [^99mTc(CO)3(OH2)3]^+ [reference compound]
